Assay results published in ChEMBL document CHEMBL1201862, “PubChem BioAssay data set” (2004).
The source made the active and inactive calls.

What was measured:
Cytochrome P450 2D6 = Cytochrome P450 2D6 (Homo sapiens, UniProt P10635);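 further: CYP2D6 member of a cytochrome P450 panel assay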
Cytochrome P450 1A2 = biological target: T1, Cytochrome P450 1A2 (Homo sapiens, UniProt P05177);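 further: PubChem cytochrome P450 panel assay, CYP1A2 panel member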
T1 sequence (P05177 whole entry): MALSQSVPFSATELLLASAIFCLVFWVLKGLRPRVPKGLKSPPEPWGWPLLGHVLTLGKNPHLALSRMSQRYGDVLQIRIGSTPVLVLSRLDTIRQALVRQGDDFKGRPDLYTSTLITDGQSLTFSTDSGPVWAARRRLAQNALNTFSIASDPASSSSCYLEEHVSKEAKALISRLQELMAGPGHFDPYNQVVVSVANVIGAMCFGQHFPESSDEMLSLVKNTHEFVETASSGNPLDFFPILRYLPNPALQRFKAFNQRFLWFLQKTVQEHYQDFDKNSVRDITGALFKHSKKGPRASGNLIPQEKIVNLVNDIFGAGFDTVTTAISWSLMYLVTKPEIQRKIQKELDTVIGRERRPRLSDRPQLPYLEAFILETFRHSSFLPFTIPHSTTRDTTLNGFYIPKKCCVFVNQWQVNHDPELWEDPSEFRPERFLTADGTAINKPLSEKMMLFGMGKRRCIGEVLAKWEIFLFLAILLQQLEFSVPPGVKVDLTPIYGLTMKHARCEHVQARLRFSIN

Cytochrome P450 2C19 = Cytochrome P450 2C19 (Homo sapiens, UniProt P33261); assay: Cytochrome panel assay with activity outcomes. Panel member name: p450-cyp2c19 Compounds with AC50 equal or less than 10 uM are considered active; assay type: functional
Streptokinase A = biological target: T2, Streptokinase A (Streptococcus pyogenes serotype M1, UniProt P10520); assay: S. pyogenes streptokinase expression inhibitors, potency, dose response, plasminogen activation absorbance, OD405 (AID 1914); assay type: functional, Streptococcus pyogenes M1 GAS;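 further: secreted streptokinase activity via plasminogen activation per viability signal from cell pellet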
T2 sequence (P10520 whole entry): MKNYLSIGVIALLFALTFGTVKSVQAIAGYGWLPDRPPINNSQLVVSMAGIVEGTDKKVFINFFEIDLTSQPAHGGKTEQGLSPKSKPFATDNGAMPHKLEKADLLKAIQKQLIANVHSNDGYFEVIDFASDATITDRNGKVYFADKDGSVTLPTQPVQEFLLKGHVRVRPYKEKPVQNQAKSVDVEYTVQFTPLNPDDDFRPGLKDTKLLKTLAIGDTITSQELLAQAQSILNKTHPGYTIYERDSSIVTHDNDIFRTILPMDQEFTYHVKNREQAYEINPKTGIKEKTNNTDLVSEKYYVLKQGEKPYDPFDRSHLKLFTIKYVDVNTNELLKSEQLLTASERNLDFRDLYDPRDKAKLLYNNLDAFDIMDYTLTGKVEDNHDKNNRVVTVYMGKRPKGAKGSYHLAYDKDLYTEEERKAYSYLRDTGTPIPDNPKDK

Streptococcus = assay: Group A Streptococcus viability loss, dose response, counter-screen for streptokinase expression inhibitor project, luminescence, BacTiterGlo (AID 1915); assay type: functional, organism-based;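 further: potency for reduction of bacterial viability or growth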
[1] = tested on: Streptococcus sp. 'group A'; assay: growth inhibition of control SK(-) GAS strain, dose response, counter-screen for streptokinase expression inhibitor project, luminescence, kanamycin, BacTiterGlo, confirmation (AID 1900); assay type: functional, organism-based
Cytochrome P450 2C9 = Cytochrome P450 2C9 (Homo sapiens, UniProt P11712)
[2] = biological target: T3, Rac GTPase-activating protein 1 (Homo sapiens, UniProt Q9H0H5); assay: MgcRacGAP GTPase-activating activity inhibitors, confirmation, biochemical, ADP Hunter fluorescence, primary and confirmatory (AID 624330); assay type: functional
T3 sequence (Q9H0H5 whole entry): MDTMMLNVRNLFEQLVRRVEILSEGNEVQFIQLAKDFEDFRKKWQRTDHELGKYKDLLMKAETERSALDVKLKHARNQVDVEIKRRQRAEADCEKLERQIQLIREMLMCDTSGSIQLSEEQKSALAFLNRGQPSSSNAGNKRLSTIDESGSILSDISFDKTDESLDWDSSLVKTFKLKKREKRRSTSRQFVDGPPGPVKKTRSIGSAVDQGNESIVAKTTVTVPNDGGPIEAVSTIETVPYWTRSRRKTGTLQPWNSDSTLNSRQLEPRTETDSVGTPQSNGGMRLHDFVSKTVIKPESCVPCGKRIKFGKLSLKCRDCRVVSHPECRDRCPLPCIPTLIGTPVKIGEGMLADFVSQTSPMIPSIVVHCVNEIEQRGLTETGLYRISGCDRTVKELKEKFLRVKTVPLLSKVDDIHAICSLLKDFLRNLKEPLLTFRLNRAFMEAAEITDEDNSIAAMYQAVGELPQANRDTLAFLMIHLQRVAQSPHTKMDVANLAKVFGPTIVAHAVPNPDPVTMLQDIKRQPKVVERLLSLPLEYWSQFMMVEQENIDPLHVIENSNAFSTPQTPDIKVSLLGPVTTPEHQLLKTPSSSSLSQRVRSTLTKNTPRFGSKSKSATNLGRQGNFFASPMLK

[3] = biological target: T4, Corticotropin-releasing factor receptor 2/Corticotropin-releasing factor-binding protein (Homo sapiens, UniProt P24387+Q13324); assay: activators of CRF receptor 2 with binding protein – uHTS hits, confirmation (AID 602473); assay type: functional; details: read-out: EC50_Mean
T4 sequence (Q13324 whole entry): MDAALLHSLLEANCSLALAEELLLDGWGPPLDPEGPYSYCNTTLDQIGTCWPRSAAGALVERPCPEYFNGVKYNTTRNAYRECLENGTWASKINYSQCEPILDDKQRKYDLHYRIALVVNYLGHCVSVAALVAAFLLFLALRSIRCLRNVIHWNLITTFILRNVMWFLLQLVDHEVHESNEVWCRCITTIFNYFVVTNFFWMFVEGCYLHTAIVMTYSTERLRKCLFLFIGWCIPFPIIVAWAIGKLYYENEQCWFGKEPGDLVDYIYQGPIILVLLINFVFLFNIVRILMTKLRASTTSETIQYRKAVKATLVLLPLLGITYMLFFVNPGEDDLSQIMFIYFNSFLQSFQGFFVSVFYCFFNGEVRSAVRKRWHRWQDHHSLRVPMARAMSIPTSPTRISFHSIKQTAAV
T4 sequence (P24387 whole entry): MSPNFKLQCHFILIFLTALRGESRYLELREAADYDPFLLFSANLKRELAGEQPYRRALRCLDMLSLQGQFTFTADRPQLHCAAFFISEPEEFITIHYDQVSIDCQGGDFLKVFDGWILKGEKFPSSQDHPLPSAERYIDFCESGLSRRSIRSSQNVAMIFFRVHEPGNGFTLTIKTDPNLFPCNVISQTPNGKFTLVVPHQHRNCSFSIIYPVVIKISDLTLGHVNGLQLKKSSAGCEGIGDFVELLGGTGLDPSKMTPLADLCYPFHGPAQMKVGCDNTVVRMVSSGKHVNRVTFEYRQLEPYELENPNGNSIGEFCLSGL

Cytochrome P450 2C19, sequence (P33261 whole entry): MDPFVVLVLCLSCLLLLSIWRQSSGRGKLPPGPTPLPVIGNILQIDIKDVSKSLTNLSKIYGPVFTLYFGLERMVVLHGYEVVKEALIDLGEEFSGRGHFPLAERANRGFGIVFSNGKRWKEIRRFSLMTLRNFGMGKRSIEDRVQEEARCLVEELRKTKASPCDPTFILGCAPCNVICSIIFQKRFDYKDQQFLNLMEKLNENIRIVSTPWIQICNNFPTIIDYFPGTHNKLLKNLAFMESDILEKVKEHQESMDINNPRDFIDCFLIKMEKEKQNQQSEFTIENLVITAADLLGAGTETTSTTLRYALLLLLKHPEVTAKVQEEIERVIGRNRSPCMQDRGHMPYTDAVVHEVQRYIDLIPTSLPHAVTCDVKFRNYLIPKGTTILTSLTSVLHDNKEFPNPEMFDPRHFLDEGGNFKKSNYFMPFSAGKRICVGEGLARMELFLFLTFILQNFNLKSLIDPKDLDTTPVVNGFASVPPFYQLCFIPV
Cytochrome P450 2D6, sequence (P10635 whole entry): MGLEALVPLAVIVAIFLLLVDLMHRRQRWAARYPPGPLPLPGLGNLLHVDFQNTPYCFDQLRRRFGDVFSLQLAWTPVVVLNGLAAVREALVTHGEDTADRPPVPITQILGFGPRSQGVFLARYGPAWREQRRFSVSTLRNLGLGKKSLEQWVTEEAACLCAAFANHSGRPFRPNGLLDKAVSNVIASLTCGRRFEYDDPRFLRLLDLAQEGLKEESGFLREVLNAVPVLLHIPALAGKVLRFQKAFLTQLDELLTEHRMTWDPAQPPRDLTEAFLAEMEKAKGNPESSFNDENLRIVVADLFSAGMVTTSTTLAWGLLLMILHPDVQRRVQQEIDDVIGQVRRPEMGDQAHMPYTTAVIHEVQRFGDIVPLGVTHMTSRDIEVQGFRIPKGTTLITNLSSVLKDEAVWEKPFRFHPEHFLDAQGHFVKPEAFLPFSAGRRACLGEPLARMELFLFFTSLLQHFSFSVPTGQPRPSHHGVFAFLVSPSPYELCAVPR
Cytochrome P450 2C9, sequence (P11712 whole entry): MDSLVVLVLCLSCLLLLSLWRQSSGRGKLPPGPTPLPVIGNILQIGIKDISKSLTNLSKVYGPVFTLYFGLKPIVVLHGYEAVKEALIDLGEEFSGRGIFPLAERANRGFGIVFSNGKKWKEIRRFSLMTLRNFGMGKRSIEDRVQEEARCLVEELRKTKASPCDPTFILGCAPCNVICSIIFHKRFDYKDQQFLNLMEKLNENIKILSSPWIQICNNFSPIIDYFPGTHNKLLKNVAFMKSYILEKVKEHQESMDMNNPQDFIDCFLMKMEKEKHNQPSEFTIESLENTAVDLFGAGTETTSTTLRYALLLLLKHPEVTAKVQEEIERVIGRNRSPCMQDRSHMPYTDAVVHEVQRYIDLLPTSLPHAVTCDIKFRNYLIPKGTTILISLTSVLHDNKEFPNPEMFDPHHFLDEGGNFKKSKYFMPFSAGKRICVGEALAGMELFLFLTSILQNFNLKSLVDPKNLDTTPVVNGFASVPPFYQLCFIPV

N#Cc1ccc(OC(=O)c2ccc(NC(=N)N)cc2)cc1.c1ccncc1
AC50 (Cytochrome P450 2D6): 3.16 µM (inconclusive)
AC50 (Cytochrome P450 1A2): 2.51 µM (inconclusive)

CCc1cc2c(=O)c(-c3nc4ccccc4n3C)c(C)oc2c(CN(CC)CC)c1O
AC50 (Cytochrome P450 2C19; read-out: AC50): 3.55 µM (inconclusive)

Cc1cnc(CNc2ncncc2-c2ccc3c(c2)OCO3)cn1
AC50 (Cytochrome P450 2D6): 20 µM (inconclusive)

CC(=O)NC(CCS(C)(=O)=O)C(=O)Nc1c(F)cccc1F (configuration not stated)
AC50 (Cytochrome P450 2C19): inconclusive

Cn1cc(-c2nc3cnc(N4CCNCC4)nc3n(CCc3ccccc3)c2=O)c2ccccc21
AC50 (Cytochrome P450 2D6): 39.8 µM (inconclusive)
AC50 (Cytochrome P450 1A2): 15.8 µM (inconclusive)

Cc1ccccc1NC(=O)NCCCCc1ccccc1
EC50 (Streptokinase A): > 150 µM (not active)
EC50 (Streptococcus): > 150 µM (not active)
EC50 [1]: > 150 µM (not active)

COc1ccc(NC(=O)NCCCN2CCCCC2C)cc1 (configuration not stated)
AC50 (Cytochrome P450 2C9): 1.26 µM (inconclusive)
AC50 (Cytochrome P450 2C19; read-out: AC50): 39.8 µM (inconclusive)
AC50 (Cytochrome P450 1A2): 25.1 µM (inconclusive)

CCOc1cc(/C=N\n2nnnc2N)ccc1O
IC50 [2]: 32.1 µM (active)

CCOC(=O)c1ccc(NC(=O)COc2ccccc2OC)cc1
AC50 (Cytochrome P450 2C19; read-out: AC50): 3.98 µM (inconclusive)
AC50 (Cytochrome P450 1A2): 7.08 µM (inconclusive)

COc1ccc(O[C@H]2C=C[C@@H](c3ccccc3)O[C@H]2CO/N=C\C[C@@H]2C=C[C@H](OC(C)=O)[C@H](COC(C)=O)O2)cc1
AC50 (Cytochrome P450 2C9): 3.16 µM (inconclusive)

COc1ccc(C(=O)N2CCC[C@@]3(CCN(CC(C)C)C3)C2)cc1
AC50 (Cytochrome P450 2D6): 15.8 µM (inconclusive)
AC50 (Cytochrome P450 1A2): 31.6 µM (inconclusive)

COc1ccc(CNc2ncnc3ccc(-c4ccc(N(C)C)cc4)cc23)c(OC)c1
AC50 (Cytochrome P450 2C9): 0.398 µM (inconclusive)
AC50 (Cytochrome P450 2D6): 25.1 µM (inconclusive)

CCC(C)Sc1cc(C(F)(F)F)c(C(=O)Nc2ccc(Cl)cc2)cn1 (configuration not stated)
EC50 (Streptokinase A): 2.38 µM (active)
EC50 (Streptococcus): 7.94 µM (active)
EC50 [1]: 4.03 µM (active)

c1cncc(-c2cc(NCc3cccs3)ncn2)c1
AC50 (Cytochrome P450 2D6): 25.1 µM (inconclusive)

COc1ccc2nc(N3CCCC(C(=O)NCCCN4CCN(C)CC4)C3)sc2c1 (configuration not stated)
AC50 (Cytochrome P450 2C9): 4.47 µM (inconclusive)
AC50 (Cytochrome P450 2C19): inconclusive
AC50 (Cytochrome P450 1A2): 12.6 µM (inconclusive)

Cc1cc(Oc2ccc(-c3ccccc3)cc2)nc(N2CCOCC2)n1
EC50 (Streptokinase A): 35.4 µM (active)
EC50 (Streptococcus): > 150 µM (not active)
EC50 [1]: 49.7 µM (active)

O=C(Nc1ncc2c(n1)-c1ccccc1CC2)c1cccc(Cl)c1
AC50 (Cytochrome P450 2C9): 20 µM (inconclusive)
AC50 (Cytochrome P450 1A2): 2.82 µM (inconclusive)

CC(C)CN1CC[C@@]2(CCCN(C(=O)c3cc(C(F)(F)F)cc(C(F)(F)F)c3)C2)C1
AC50 (Cytochrome P450 2C19; read-out: AC50): 39.8 µM (inconclusive)
AC50 (Cytochrome P450 1A2): 25.1 µM (inconclusive)

CC(C)CN(Cc1cc(=O)oc2cc3c(cc12)CCCC3)CC(C)C
EC50 (Streptokinase A): 5.67 µM (active)
EC50 (Streptococcus): 21.2 µM (active)
EC50 [1]: 6.12 µM (active)

Cc1ccc(S(=O)(=O)N2CCC(=O)N(C(COCc3ccc(Cl)c(Cl)c3)Cc3ccccc3)CC2)cc1 (configuration not stated)
EC50 [3]: 4.29 µM (active)

COc1ccc2cc(C(=O)/C=C/c3cc(OC)c(O)c(OC)c3)ccc2c1
EC50 (Streptokinase A): > 150 µM (not active)
EC50 (Streptococcus): 14.7 µM (active)
EC50 [1]: 5.61 µM (active)
